Laboratory results as given in patent publication US7056734B1, “Differentiation of non-insulin producing cells into insulin producing cells by GLP-1 or exendin-4 and uses thereof” (The United States of America as represented by the …, priority 1998, dated 2006).

Legend:
[1] = test system: diabetic mice; assay: Preliminary ip and sc injections, duration of blood sugar lowering; assay type: in vivo, mouse; conditions: for blood sugars 24 hours after ip and sc injections: preliminary experiments
Method: Effects of chronic treatment with exendin-4 in mice. The biological activity of exendin-4, as measured by its ability to lower blood sugar, was much longer than we expected when given ip or subcutaneously to diabetic animals. […] This lead us to design a long-term experiment with exendin-4. At the initiation of the daily ip exendin-4 regimen in the mice fasting blood glucose was 145±51 mg/dl in the non-diabetic mice and 232±38 mg/dl in the diabetic mice. […] Glucose levels dropped to 90±11 mg/dl in the exendin-4-treated animals from 238±51 mg/dl (p<0.002) in the NaCl-treated animals (Table 1). We measured fasting insulin levels in the diabetic animals that received NaCl or exendin-4. They were higher in the animals that received exendin-4 (p<0.002). […] We surmised that the decreased urination in the exendin-4-treated diabetic mice was due to less osmotic diuresis because of lower blood glucose.
This was possibly due to greater variation in the sc technique and perhaps even loss of the peptide during injections in some cases.

[2] = test system: AR42J cells; assay: Immunocytochemistry of insulin- and glucagon-positive AR42J cells; assay type: cell-based, rat
Method: Cell culture. AR42J cells were maintained in Dulbecco's modified Eagle's medium (DMEM) supplemented with 10% fetal calf serum (FBS), 100 IU/ml penicillin, 100 μg/ml streptomycin and 2 mM glutamine. Cells from passage 23–35 were used throughout this study. Cells were routinely plated at a density of about 10^5 cells/ml in 12-well cluster dishes or on coverslips and incubated in a humidified incubator at 37° C. with 95% air and 5% CO2.
Immunocytochemistry analysis. Cells were cultured on glass coverslips, washed with phosphate buffered saline (PBS) to remove serum, and fixed with 0.5% glutaraldehyde in PBS. Cells were permeabilized with 0.2% Triton X-100 for 5 min and the rest of the procedure was carried out at room temperature in a humidified chamber. Suction was used to remove reagents between each step but drying of specimens was avoided. Sufficient reagent was used to cover each specimen (approximately 1 or 2 drops was usually adequate). The coverslips were incubated in 0.3% H2O2 in PBS for 30 min to quench endogenous peroxidase activity and washed in PBS×3 times, followed by incubation with 2% goat serum in PBS for 30 min to block non-specific binding of IgG. Excess serum was removed by blotting. The specific primary polyclonal antisera (anti-insulin 1:300; anti-glucagon 1:300) were used. Antibody was diluted in PBS containing 1% goat serum. This was applied to the coverslip and incubated at room temperature for 1 h. The coverslips were washed ×3 times in PBS, each time for 5 min, then incubated with biotinylated second antibody for 1 h and washed ×3 times with PBS. Avidin-biotin-peroxidase complex in PBS was applied for 30 min. Immunoperoxidase labeling was performed with a Vectostain ABC kit (Vector Labs, Burlingame, Calif.). After extensive washing in PBS for 4–5 times (each 5 min), the coverslips were incubated in diaminobenzidine tetrahydrochloride (DAB) in PBS, with 0.01% hydrogen peroxide for 3 min. The reaction was stopped by washing the coverslips in PBS and examined under a light microscope. To confirm specific staining, samples incubated with preabsorbed primary antibody were used as negative control, and the insulin producing cell line RIN 1046-38 cells were used as positive control for our experiments. The avidin-biotin-peroxidase (ABC) procedure was performed according to methods known in the art (Hsu et al., 1981).

[3] = test system: Wistar rats; assay: Intravenous bolus of exendin-4 or GLP-1, plasma insulin in fasted anesthetized rats; assay type: in vivo, rat; conditions: for time by which insulin levels return to baseline: 0.4 nmol/kg iv bolus; for urine output during the study: iv bolus, not quantitated
Method: Protocols. Wistar rats were fasted overnight. Following anesthesia with 50 mg/kg pentobarbital, a catheter was placed in the femoral artery for blood sampling. A bolus of either exendin-4 or GLP-1 was given into the saphenous vein (iv) over 30 sec to 12 animals, while a bolus of normal saline (NaCl) was given to the other six. The order of the injections was rotated. Blood (taken at −5, 0, 2, 5, 15, 30, 60, 120, and 180 min) was drawn into heparinized tubes containing EDTA and aprotinin for insulin determination (See Example 1). Animals were acclimated to the facility for at least 2 days.
Assays. Plasma glucose was measured by the glucose oxidase method (Wang et al., 1997). Insulin was measured by RIA as previously described (See Example 1). Hb A1c was assayed using a BIO-RAD (Herculas Calif.) DiaSTAT machine which uses low pressure cation exchange chromatography in conjunction with gradient elution to separate hemoglobin subtypes and variants from hemolyzed blood. The separated hemoglobin fractions were monitored by means of absorption of light at 415 nm.
Statistical methods. All results are given as mean±SEM. T tests were based on the results of an F test that looked at the equality of variance of the two means. […] For determination of the EC50 the basal plasma insulin levels were subtracted and the remaining activity at each concentration was expressed as a percent of the maximal activity (achieved by an excess of peptide). This was then transformed into a logit format where logit=ln (% activity/[100-% activity]) and was plotted as a function of the log concentration of the compound.

[4] = test system: islets of Langerhans; assay: cAMP determinations in isolated islets; assay type: cell-based, rat
Method: cAMP determinations. Islets of Langerhans were harvested from Wistar rats (Perfetti et al., 1995) and batches of 25 islets were then incubated for 1 h at 37° C. in a buffer containing (mM) 140 NaCl, 5 KCl, 1 NaPO4 1 MgSO4, 5 glucose, 2 CaCl2, 20 HEPES, buffer (pH 7.4) and 0.1% bovine serum albumin. Following this, they were incubated in the same buffer for 1 h in the presence of GLP-1 (1 nM) or exendin-4 (1 nM). Some batches of islets were then washed three times with ice-cold phosphate buffer saline (PBS) and lysed with 1 ml ice-cold […] perchloric acid. Other batches were washed three times in the buffer at 37° C. to remove peptide and left another 15 min before being washed three times in ice-cold PBS followed by lysis with the perchloric acid. The lysates (950 μl) were then transferred to microcentrifuge tubes and cAMP measured as previously described (See Example 1) using a cAMP [^3H] assay kit (Amersham).

[5] = 10 nM GLP-1 or 0.1 nM exendin-4, 3 days

Molecule | blood sugars 24 hours after ip and sc injections [1] | AR42J cells converted into insulin-positive cells ([2]; 1 nM GLP-1, 3 days) [%] | AR42J cells converted into insulin-positive cells [2, 5] [%] | treated AR42J cells glucagon positive ([2]; 48 h, GLP-1 (10 nM)) [%] | treated AR42J cells insulin-positive ([2]; 48 h, GLP-1 (10 nM)) [%] | treated cells containing glucagon ([2]; 72 h, GLP-1 (10 nM)) | cells remaining insulin-positive ([2]; for at least 7 days, GLP-1 (10 nM)) [%] | time by which insulin levels return to baseline [3] [min] | urine output during the study [3] | cAMP levels 15 min after removal of peptide by three washes [4] | concentration of maximum cAMP response [4] [nM] | duration of lower blood sugars after an ip dose [1] | lowest concentration at which some insulin-containing cells were seen ([2]; AR42J cells) | maximal insulin response compared with GLP-1 ([3]; 0.4 nmol/kg iv) | cAMP levels relative to GLP-1 ([4]; 1 nM, 1 h)
CC[C@H](C)[C@H](NC(=O)[C@H](Cc1ccccc1)NC(=O)[C@H](CCC(=O)O)NC(=O)[C@H](CCCCN)NC(=O)[C@H](C)NC(=O)[C@H](C)NC(=O)[C@H](CCC(N)=O)NC(=O)CNC(=O)[C@H](CCC(=O)O)NC(=O)[C@H](CC(C)C)NC(=O)[C@H](Cc1ccc(O)cc1)NC(=O)[C@H](CO)NC(=O)[C@H](CO)NC(=O)[C@@H](NC(=O)[C@H](CC(=O)O)NC(=O)[C@H](CO)NC(=O)[C@@H](NC(=O)[C@H](Cc1ccccc1)NC(=O)[C@@H](NC(=O)CNC(=O)[C@H](CCC(=O)O)NC(=O)[C@H](C)NC(=O)[C@@H](N)Cc1c[nH]cn1)[C@@H](C)O)[C@@H](C)O)C(C)C)C(=O)N[C@@H](C)C(=O)N[C@@H](Cc1c[nH]c2ccccc12)C(=O)N[C@@H](CC(C)C)C(=O)N[C@H](C(=O)N[C@@H](CCCCN)C(=O)NCC(=O)N[C@@H](CCCNC(=N)N)C(N)=O)C(C)C [GLP-1] | back to baseline | ~10 | ~25 | 20 | ~6 | fully half | ~25 | ≤ 10 | urinated little if any | returned to baseline | 1 | – | – | – | –
exendin-4 | lower blood sugars | – | ~25 | – | – | – | – | ≤ 60 | obvious increase in urine output | returned to baseline | – | up to 24 hours | 10^−11 molar | approximately doubled | approximately 3 fold
